Measurements: US8754105B2, “Macrocyclic inhibitors of hepatitis C virus” (Medivir AB, priority 2005, dated 2014)

Legend:
[1] = test system: HCV type 1b replicon in Huh-7 luc/neo cells; assay: HCV replicon assay (Huh-Luc cells, luciferase readout); format: cell-based; conditions: Hepatitis C virus, Huh-7, 72 h, three days incubation, luciferase activity
Description: The compounds of formula (I) were examined for activity in the inhibition of HCV RNA replication in a cellular assay. […] The cellular assay was based on a bicistronic expression construct, as described by Lohmann et al. (1999) Science vol. 285 pp. 110-113 with modifications described by Krieger et al. (2001) Journal of Virology 75: 4614-4624, in a multi-target screening strategy. In essence, the method was as follows.
The assay utilized the stably transfected cell line Huh-7 luc/neo (hereafter referred to as Huh-Luc). This cell line harbors an RNA encoding a bicistronic expression construct comprising the wild type NS3-NS5B regions of HCV type 1b translated from an Internal Ribosome Entry Site (IRES) from encephalomyocarditis virus (EMCV), preceded by a reporter portion (FfL-luciferase), and a selectable marker portion (neo^R, neomycine phosphotransferase). The construct is bordered by 5′ and 3′ NTRs (non-translated regions) from HCV type 1b. Continued culture of the replicon cells in the presence of G418 (neo^R) is dependent on the replication of the HCV RNA. The stably transfected replicon cells that express HCV RNA, which replicates autonomously and to high levels, encoding inter alia luciferase, are used for screening the antiviral compounds.
The replicon cells were plated in 384 well plates in the presence of the test and control compounds which were added in various concentrations. Following an incubation of three days, HCV replication was measured by assaying luciferase activity (using standard luciferase assay substrates and reagents and a Perkin Elmer ViewLux™ ultraHTS microplate imager). Replicon cells in the control cultures have high luciferase expression in the absence of any inhibitor. The inhibitory activity of the compound on luciferase activity was monitored on the Huh-Luc cells, enabling a dose-response curve for each test compound.

[2] = biological target: full-length hepatitis C NS3 protease with NS4A cofactor (Hepatitis C virus genotype 1a (isolate H77) (HCV), UniProt P27958); assay: HCV NS3/4A protease inhibition (enzymatic) assay
full-length hepatitis C NS3 protease with NS4A cofactor, sequence (P27958 1027-1657): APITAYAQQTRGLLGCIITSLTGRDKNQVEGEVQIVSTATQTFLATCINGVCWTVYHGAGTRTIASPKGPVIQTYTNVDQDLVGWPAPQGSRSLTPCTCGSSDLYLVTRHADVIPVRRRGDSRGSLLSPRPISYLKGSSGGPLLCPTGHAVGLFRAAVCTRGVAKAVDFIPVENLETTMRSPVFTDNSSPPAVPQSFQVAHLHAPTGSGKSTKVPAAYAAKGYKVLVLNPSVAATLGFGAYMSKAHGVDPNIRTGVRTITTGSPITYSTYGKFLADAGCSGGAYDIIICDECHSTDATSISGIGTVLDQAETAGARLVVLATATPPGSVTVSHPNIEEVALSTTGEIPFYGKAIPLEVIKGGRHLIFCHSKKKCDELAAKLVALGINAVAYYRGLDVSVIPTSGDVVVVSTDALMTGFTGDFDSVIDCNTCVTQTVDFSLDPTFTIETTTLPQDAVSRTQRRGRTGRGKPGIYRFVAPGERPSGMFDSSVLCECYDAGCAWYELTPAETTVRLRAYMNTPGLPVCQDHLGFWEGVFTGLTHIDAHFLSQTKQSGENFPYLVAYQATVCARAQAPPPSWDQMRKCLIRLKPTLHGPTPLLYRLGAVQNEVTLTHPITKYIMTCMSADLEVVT
Description: The aim of this in vitro assay was to measure the inhibition of HCV NS3/4A protease complexes by the compounds of the present invention.
The inhibition of full-length hepatitis C NS3 protease enzyme was measured essentially as described in Poliakov, 2002 Prot Expression & Purification 25 363 371. Briefly, the hydrolysis of a depsipeptide substrate, Ac-DED(Edans)EEAbuψ[COO]ASK(Dabcyl)-NH2 (AnaSpec, San José, USA), was measured spectrofluorometrically in the presence of a peptide cofactor, [sequence] […] The enzyme (1 nM) was incubated in 50 mM HEPES, pH 7.5, 10 mM DTT, 40% glycerol, 0.1% n-octyl-D-glucoside, with 25 μM NS4A cofactor and inhibitor at 30° C. for 10 min, whereupon the reaction was initiated by addition of 0.5 μM substrate. Inhibitors were dissolved in DMSO, sonicated for 30 sec. and vortexed. The solutions were stored at −20° C. between measurements.
The final concentration of DMSO in the assay sample was adjusted to 3.3%. The rate of hydrolysis was corrected for inner filter effects according to published procedures. […] A minimum of two replicates was performed for all measurements.

## COc1ccc2c(O[C@@H]3C[C@H]4C(=O)N[C@]5(C(=O)O)C[C@H]5/C=C\CCCCOC(=O)N4C3)nc(Cl)cc2c1 [Compound 16, 17-(3-chloro-6-methoxyisoquinolin-1-yloxy)-2,14-dioxo-3,15-diaza-13-oxatricyclo[13.3.0.0^4,6]octadec-7-ene-4-carboxylic acid]
[1]
  EC50: > 10000 nM
[2]
  Ki: 1000 nM

## COc1ccc2c(O[C@@H]3C[C@H]4C(=O)N[C@]5(C(=O)NS(=O)(=O)C6CC6)C[C@H]5/C=C\CCCCOC(=O)N4C3)nc(Cl)cc2c1 [Compound 17, N-[17-(3-chloro-6-methoxyisoquinolin-1-yloxy)-2,14-dioxo-3,15-diaza-13-oxatricyclo[13.3.0.0^4,6]octadec-7-ene-4-carbonyl](cyclopropyl) sulfonamide]
[1]
  EC50: > 10000 nM
[2]
  Ki: 43 nM

## COc1ccc2c(O[C@@H]3C[C@H]4C(=O)N[C@]5(C(=O)O)C[C@H]5/C=C\CCCCOC(=O)N4C3)cc(-c3ccccc3)nc2c1 [Compound 22, 17-(7-methoxy-2-phenylquinolin-4-yloxy)-2,14-dioxo-3,15-diaza-13-oxatricyclo[13.3.0.0^4,6]octadec-7-ene-4-carboxylic acid]
[1]
  EC50: > 10000 nM
[2]
  Ki: 1070 nM

## COc1ccc2c(O[C@@H]3C[C@H]4C(=O)N[C@]5(C(=O)NS(=O)(=O)C6CC6)C[C@H]5/C=C\CCCCOC(=O)N4C3)cc(-c3ccccc3)nc2c1 [Compound 23, N-[17-(7-methoxy-2-phenylquinolin-4-yloxy)-2,14-dioxo-3,15-diaza-13-oxatricyclo[13.3.0.0^4,6]octadec-7-ene-4-carbonyl](cyclopropyl)-sulfonamide]
[1]
  EC50: 1080 nM
[2]
  Ki: 0.2 nM

## COc1ccc2c(O[C@@H]3C[C@H]4C(=O)N[C@]5(C(=O)O)C[C@H]5/C=C\CCCCCOC(=O)N4C3)cc(-c3ccccc3)nc2c1 [Compound 24, 18-(7-methoxy-2-phenylquinolin-4-yloxy)-2,15-dioxo-3,16-diaza-14-oxatricyclo[14.3.0.0^4,6]nonadec-7-ene-4-carboxylic acid]
[1]
  EC50: > 10000 nM
[2]
  Ki: 40 nM

## COc1ccc2c(O[C@@H]3C[C@H]4C(=O)N[C@]5(C(=O)NS(=O)(=O)C6CC6)C[C@H]5/C=C\CCCCCOC(=O)N4C3)cc(-c3ccccc3)nc2c1 [Compound 25, N-[18-(7-methoxy-2-phenylquinolin-4-yloxy)-2,15-dioxo-3,16-diaza-14-oxatricyclo[14.3.0.0^4,6]nonadec-7-ene-4-carbonyl](cyclopropyl)-sulfonamide]
[1]
  EC50: 481 nM
[2]
  Ki: 2.4 nM
